Data published in ChEMBL document CHEMBL2046380, “Synthesis and structure-activity relationship of disubstituted benzamides as a novel class of antimalarial agents” (Bioorg Med Chem Lett, 2012).

Columns and labels:
Plasmodium falciparum [1] = assay: Antimalarial activity against […] incubated for 72 hrs by DNA staining based MARK1 growth inhibition assay; assay type: functional, organism-based
BJ = assay: Cytotoxicity against human BJ cells after 72 hrs by […] CellTiterGlo reagent assay; assay type: cell-based
HepG2 = assay: Cytotoxicity against human HepG2 cells after 72 hrs by […] CellTiterGlo reagent assay; assay type: cell-based; conditions: HepG2, 72 h
HEK293 = assay: Cytotoxicity against human HEK293 cells after 72 hrs by […] CellTiterGlo reagent assay; assay type: cell-based; conditions: HEK293, 72 h
Plasmodium falciparum [2] = assay: Antimalarial activity against chloroquine-sensitive Plasmodium falciparum 3D7 incubated for 72 hrs by DNA staining based MAR3D7 growth inhibition assay; assay type: functional, organism-based; conditions: 3D7, 72 h
Raji = assay: Cytotoxicity against human Raji cells after 72 hrs by […] CellTiterGlo reagent assay; assay type: cell-based

Q: What does the source list for `CC(C)N(Cc1cccc(OCCCCCC(=O)O)c1)C(=O)c1ccc(-c2ccc3c(c2)OCCO3)cc1`?
A: EC50 (Plasmodium falciparum [1]): > 12.1 µM; EC50 (BJ): > 21.9 µM; EC50 (HepG2): > 21.9 µM; EC50 (HEK293): > 21.9 µM; EC50 (Plasmodium falciparum [2]): > 12.1 µM; EC50 (Raji): > 21.9 µM

Q: Which results are given for `COc1cc(OC)cc(-c2ccc(C(=O)N(Cc3cccc(OCCCCCC(=O)O)c3)C(C)C)cc2)c1`?
A: EC50 (Plasmodium falciparum [1]): > 15 µM; EC50 (BJ): > 26 µM; EC50 (HepG2): > 26 µM; EC50 (HEK293): > 26 µM; EC50 (Plasmodium falciparum [2]): > 15 µM; EC50 (Raji): > 26 µM

Q: What does the source list for `CC(C)N(Cc1cccc(OCCCCCC(=O)O)c1)C(=O)c1ccc(-c2cccc(O)c2)cc1`?
A: EC50 (Plasmodium falciparum [1]): > 15 µM; EC50 (BJ): > 26 µM; EC50 (HepG2): > 26 µM; EC50 (HEK293): > 26 µM; EC50 (Plasmodium falciparum [2]): > 15 µM; EC50 (Raji): > 26 µM

Q: What does the source list for `CC(C)N(Cc1cccc(OCCCCCC(=O)O)c1)C(=O)c1ccc(-c2cccc(OC(F)(F)F)c2)cc1`?
A: EC50 (Plasmodium falciparum [1]): > 15 µM; EC50 (BJ): > 26 µM; EC50 (HepG2): > 26 µM; EC50 (HEK293): > 26 µM; EC50 (Plasmodium falciparum [2]): > 15 µM; EC50 (Raji): > 26 µM

Q: With `COc1cc(F)cc(-c2ccc(C(=O)N(Cc3cccc(OCCCCCC(=O)O)c3)C(C)C)cc2)c1` as the compound, how does the EC50 (Plasmodium falciparum [1]) read?
A: Its EC50 is over 15 µM.

Q: And the EC50 (BJ)?
A: The EC50 was over 26 µM.

Q: What about the EC50 (HepG2) of the same compound?
A: Its EC50 is over 26 µM.

Q: And the EC50 (HEK293)?
A: The EC50 was over 26 µM.

Q: What about the EC50 (Plasmodium falciparum [2]) of the same compound?
A: The EC50 was over 15 µM.

Q: And the EC50 (Raji)?
A: Its EC50 is over 26 µM.

Q: For `COc1ccc(F)c(-c2ccc(C(=O)N(Cc3cccc(OCCCCCC(=O)O)c3)C(C)C)cc2)c1`, which EC50 (Plasmodium falciparum [1]) is on record?
A: Its EC50 is over 15 µM.

Q: What about the EC50 (BJ) of the same compound?
A: The EC50 was over 26 µM.

Q: And the EC50 (HepG2)?
A: The EC50 was over 26 µM.

Q: And the EC50 (HEK293)?
A: The EC50 was over 26 µM.

Q: And the EC50 (Plasmodium falciparum [2])?
A: Its EC50 is over 15 µM.

Q: What about the EC50 (Raji) of the same compound?
A: Its EC50 is over 26 µM.

Q: Which results are given for `CC(C)N(Cc1cccc(OCCCCCC(=O)O)c1)C(=O)c1ccc(-c2cccc(F)c2)cc1`?
A: EC50 (Plasmodium falciparum [1]): > 15 µM; EC50 (BJ): > 26 µM; EC50 (HepG2): > 26 µM; EC50 (HEK293): > 26 µM; EC50 (Plasmodium falciparum [2]): > 15 µM; EC50 (Raji): > 26 µM

Q: Which EC50 (Plasmodium falciparum [1]) does the source give for `CC(C)N(Cc1cccc(OCCCCCC(=O)O)c1)C(=O)c1ccc(-c2cccc(C(F)(F)F)c2)cc1` here?
A: Its EC50 is over 15 µM.

Q: What about the EC50 (BJ) of the same compound?
A: Its EC50 is over 26 µM.

Q: And the EC50 (HepG2)?
A: Its EC50 is over 26 µM.

Q: And the EC50 (HEK293)?
A: The EC50 was over 26 µM.

Q: What about the EC50 (Plasmodium falciparum [2]) of the same compound?
A: Its EC50 is over 15 µM.

Q: And the EC50 (Raji)?
A: The EC50 was over 26 µM.

Q: For `CC(C)N(Cc1cccc(OCCCCCC(=O)O)c1)C(=O)c1ccc(-c2ccc(Cl)c(Cl)c2)cc1`, which EC50 (Plasmodium falciparum [1]) is on record?
A: Its EC50 is 0.0175 µM.

Q: What about the EC50 (BJ) of the same compound?
A: Its EC50 is over 26 µM.

Q: What about the EC50 (HepG2) of the same compound?
A: The EC50 was over 26 µM.

Q: What about the EC50 (HEK293) of the same compound?
A: Its EC50 is over 26 µM.

Q: And the EC50 (Plasmodium falciparum [2])?
A: Its EC50 is over 15 µM.

Q: What about the EC50 (Raji) of the same compound?
A: Its EC50 is over 26 µM.

Q: How did the EC50 (Plasmodium falciparum [1]) turn out when `CC(C)N(Cc1cccc(OCCCCCC(=O)O)c1)C(=O)c1ccc(-c2cccc(Cl)c2)cc1` was run?
A: The EC50 was over 12.1 µM.

Q: And the EC50 (BJ)?
A: The EC50 was over 21.9 µM.

Q: What about the EC50 (HepG2) of the same compound?
A: Its EC50 is over 21.9 µM.

Q: And the EC50 (HEK293)?
A: The EC50 was over 21.9 µM.

Q: What about the EC50 (Plasmodium falciparum [2]) of the same compound?
A: Its EC50 is over 12.1 µM.

Q: What about the EC50 (Raji) of the same compound?
A: The EC50 was over 21.9 µM.

Q: `CC(C)N(Cc1cccc(OCCCCCC(=O)O)c1)C(=O)c1ccc(-c2cccc(S(C)(=O)=O)c2)cc1` was tested. Which EC50 (Plasmodium falciparum [1]) did it give?
A: Its EC50 is over 15 µM.

Q: What about the EC50 (BJ) of the same compound?
A: The EC50 was over 26 µM.

Q: And the EC50 (HepG2)?
A: The EC50 was over 26 µM.

Q: And the EC50 (HEK293)?
A: Its EC50 is over 26 µM.

Q: And the EC50 (Plasmodium falciparum [2])?
A: The EC50 was over 15 µM.

Q: What about the EC50 (Raji) of the same compound?
A: The EC50 was over 26 µM.

Q: What does the source list for `CC(C)N(Cc1cccc(OCCCCCC(=O)O)c1)C(=O)c1ccc(-c2cccc([N+](=O)[O-])c2)cc1`?
A: EC50 (Plasmodium falciparum [1]): > 15 µM; EC50 (BJ): > 26 µM; EC50 (HepG2): > 26 µM; EC50 (HEK293): > 26 µM; EC50 (Plasmodium falciparum [2]): < 0.0004 µM; EC50 (Raji): > 26 µM

Q: What does the source list for `CC(C)N(Cc1cccc(OCCCCCC(=O)O)c1)C(=O)c1ccc(-c2cccc(N(C)C)c2)cc1`?
A: EC50 (Plasmodium falciparum [1]): > 15 µM; EC50 (BJ): > 26 µM; EC50 (HepG2): > 26 µM; EC50 (HEK293): > 26 µM; EC50 (Plasmodium falciparum [2]): > 15 µM; EC50 (Raji): > 26 µM

Q: Which results are given for `CC(=O)Nc1cccc(-c2ccc(C(=O)N(Cc3cccc(OCCCCCC(=O)O)c3)C(C)C)cc2)c1`?
A: EC50 (Plasmodium falciparum [1]): > 15 µM; EC50 (BJ): > 26 µM; EC50 (HepG2): > 26 µM; EC50 (HEK293): > 26 µM; EC50 (Plasmodium falciparum [2]): > 15 µM; EC50 (Raji): > 26 µM

Q: Which EC50 (Plasmodium falciparum [1]) does the source give for `CC(C)N(Cc1cccc(OCCCCCC(=O)O)c1)C(=O)c1ccc(-c2ccncc2)cc1` here?
A: Its EC50 is 0.52 µM.

Q: What about the EC50 (BJ) of the same compound?
A: The EC50 was over 26 µM.

Q: What about the EC50 (HepG2) of the same compound?
A: The EC50 was over 26 µM.

Q: What about the EC50 (HEK293) of the same compound?
A: Its EC50 is over 26 µM.

Q: And the EC50 (Plasmodium falciparum [2])?
A: Its EC50 is 0.567 µM.

Q: What about the EC50 (Raji) of the same compound?
A: Its EC50 is over 26 µM.

Q: Which results are given for `CC(C)N(Cc1cccc(OCCCCCC(=O)O)c1)C(=O)c1ccc(-c2ccoc2)cc1`?
A: EC50 (Plasmodium falciparum [1]): > 15 µM; EC50 (BJ): > 26 µM; EC50 (HepG2): > 26 µM; EC50 (HEK293): > 26 µM; EC50 (Plasmodium falciparum [2]): > 15 µM; EC50 (Raji): > 26 µM

Q: What does the source list for `CC(C)N(Cc1cccc(OCCCCCC(=O)O)c1)C(=O)c1ccc(-c2ccco2)cc1`?
A: EC50 (Plasmodium falciparum [1]): > 15 µM; EC50 (BJ): > 26 µM; EC50 (HepG2): > 26 µM; EC50 (HEK293): > 26 µM; EC50 (Plasmodium falciparum [2]): > 15 µM; EC50 (Raji): > 26 µM

Q: Which EC50 (Plasmodium falciparum [1]) does the source give for `CC(C)N(Cc1cccc(OCCCCCC(=O)O)c1)C(=O)c1ccc(-c2ccsc2)cc1` here?
A: Its EC50 is over 15 µM.

Q: What about the EC50 (BJ) of the same compound?
A: Its EC50 is over 26 µM.

Q: What about the EC50 (HepG2) of the same compound?
A: Its EC50 is over 26 µM.

Q: And the EC50 (HEK293)?
A: Its EC50 is over 26 µM.

Q: And the EC50 (Plasmodium falciparum [2])?
A: The EC50 was over 15 µM.

Q: And the EC50 (Raji)?
A: The EC50 was over 26 µM.

Q: What does the source list for `Cc1nnc(-c2cccc(-c3ccc(C(=O)N(Cc4cccc(OCCCCCC(=O)O)c4)C(C)C)cc3)c2)o1`?
A: EC50 (Plasmodium falciparum [1]): > 15 µM; EC50 (BJ): > 26 µM; EC50 (HepG2): > 26 µM; EC50 (HEK293): > 26 µM; EC50 (Plasmodium falciparum [2]): > 15 µM; EC50 (Raji): > 26 µM

Q: How did the EC50 (Plasmodium falciparum [1]) turn out when `CC(C)N(Cc1cccc(OCCCCCC(=O)O)c1)C(=O)c1ccc(-c2ccc3[nH]ccc3c2)cc1` was run?
A: The EC50 was over 15 µM.

Q: What about the EC50 (BJ) of the same compound?
A: Its EC50 is over 26 µM.

Q: What about the EC50 (HepG2) of the same compound?
A: The EC50 was over 26 µM.

Q: And the EC50 (HEK293)?
A: The EC50 was over 26 µM.

Q: And the EC50 (Plasmodium falciparum [2])?
A: Its EC50 is over 15 µM.

Q: And the EC50 (Raji)?
A: The EC50 was over 26 µM.

Q: Which results are given for `CC(C)N(Cc1cccc(OCCCCCC(=O)O)c1)C(=O)c1ccc(-c2ccc3cc[nH]c3c2)cc1`?
A: EC50 (Plasmodium falciparum [1]): > 1.5 µM; EC50 (BJ): > 26 µM; EC50 (HepG2): > 26 µM; EC50 (HEK293): > 26 µM; EC50 (Plasmodium falciparum [2]): > 15 µM; EC50 (Raji): > 26 µM

Q: What does the source list for `COc1cc2c(cc1OC)C(C)=NCC2`?
A: EC50 (Plasmodium falciparum [1]): > 7.51 µM; EC50 (BJ): > 13 µM; EC50 (HepG2): > 13 µM; EC50 (HEK293): > 13 µM; EC50 (Plasmodium falciparum [2]): > 7.51 µM; EC50 (Raji): > 13 µM
